Molecules are shown by their SMILES.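 These data come from cells grown in 96-well plates and exposed to compound for 48 hours at five concentrations. TGI: concentration producing complete growth inhibition.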

Test systems include SNB-19 CNS; SW-620 colon; K-562 leukemia; A549 NSCLC; HCC-2998 colon; LOX IMVI melanoma; RPMI-8226 leukemia; UACC-62 melanoma; 786-0 renal; SNB-75 CNS; HCT-15 colon; SN12C renal; IGROV1 ovarian; CCRF-CEM leukemia; A498 renal; HOP-92 NSCLC; NCI-H522 lung; OVCAR-3 ovarian; SF-295 CNS; RXF 393 renal.
Assay in all cases: inhibition of tumour cell growth, NCI panel, 48 h

As for `O=C(CC(C(=O)c1cccs1)c1cccs1)c1ccsc1` (centres undefined), the TGI with SNB-19 CNS, in the experiment on SW-620 colon, in the experiment on K-562 leukemia, in the experiment on A549 NSCLC, in the experiment with HCC-2998 colon and in the experiment on LOX IMVI melanoma was above 100 µM throughout. In addition, the TGI in the experiment with RPMI-8226 leukemia, in the experiment on UACC-62 melanoma, with 786-0 renal, with SNB-75 CNS, in the experiment on HCT-15 colon and in the experiment on SN12C renal was above 100 µM each time. Moreover, the TGI in the experiment on IGROV1 ovarian, with CCRF-CEM leukemia and in the experiment with A498 renal was above 100 µM each time.

`CCOC(=O)N1c2c(ccn2C)-c2ccn(C)c2N1C(=O)OCC`: the TGI with SW-620 colon was found to be 28.6 µM; with K-562 leukemia, 42.4 µM; with HOP-92 NSCLC, 63.7 µM; in the experiment with NCI-H522 lung, 25 µM; with A549 NSCLC, 39.4 µM; in the experiment with HCC-2998 colon, 37.9 µM. Further, the TGI in the experiment with LOX IMVI melanoma is 25.6 µM; in the experiment on RPMI-8226 leukemia it was 54.3 µM; in the experiment on UACC-62 melanoma, 31.3 µM; in the experiment with 786-0 renal, 23.1 µM; with SNB-75 CNS, 33.7 µM; in the experiment on HCT-15 colon it was 26.5 µM. The TGI with SN12C renal is 29.6 µM; in the experiment with IGROV1 ovarian, 52.4 µM; in the experiment on OVCAR-3 ovarian it was 27.1 µM; in the experiment with SF-295 CNS, 29.7 µM; in the experiment on CCRF-CEM leukemia, 13.8 µM; with A498 renal, above 100 µM.

For `Cc1ccc(N2C(=O)C=C(C3=C(O)C(=O)N(c4ccc(C)cc4)C3=O)C2=O)cc1`, the TGI with SNB-19 CNS, in the experiment with SW-620 colon, in the experiment with K-562 leukemia, in the experiment on HOP-92 NSCLC, in the experiment with A549 NSCLC and in the experiment on HCC-2998 colon was above 100 µM each time. Besides, the TGI in the experiment with LOX IMVI melanoma, in the experiment on RPMI-8226 leukemia, in the experiment with UACC-62 melanoma, in the experiment with 786-0 renal, with SNB-75 CNS and in the experiment with HCT-15 colon was above 100 µM throughout. For the same compound, the TGI in the experiment with SN12C renal, in the experiment on IGROV1 ovarian, in the experiment on OVCAR-3 ovarian, in the experiment on SF-295 CNS, in the experiment with CCRF-CEM leukemia and in the experiment on A498 renal was above 100 µM throughout.

Regarding `COc1cccc2c1CCc1c(-c3ccc(F)cc3)cc(-c3ccc4ccccc4n3)nc1-2`, the TGI in the experiment on SNB-19 CNS, with SW-620 colon, with K-562 leukemia, with HOP-92 NSCLC, in the experiment with NCI-H522 lung and in the experiment with A549 NSCLC was above 100 µM in each case. Also, the TGI with LOX IMVI melanoma, in the experiment on RPMI-8226 leukemia, in the experiment on UACC-62 melanoma, in the experiment with 786-0 renal, in the experiment with SNB-75 CNS and with HCT-15 colon was above 100 µM each time. Also, the TGI in the experiment on IGROV1 ovarian, in the experiment with RXF 393 renal, with OVCAR-3 ovarian, in the experiment with SF-295 CNS, in the experiment on CCRF-CEM leukemia and with A498 renal was above 100 µM in each case.

Consider `Cc1n[nH]c(=O)n1/N=C/c1ccc(F)cc1`, for which the TGI in the experiment on SNB-19 CNS, with SW-620 colon, in the experiment with K-562 leukemia, in the experiment on HOP-92 NSCLC, in the experiment on NCI-H522 lung and in the experiment on A549 NSCLC was above 100 µM throughout. Further, the TGI in the experiment on HCC-2998 colon, in the experiment with RPMI-8226 leukemia, in the experiment on UACC-62 melanoma, in the experiment on 786-0 renal, with SNB-75 CNS and in the experiment with HCT-15 colon was above 100 µM throughout. The TGI in the experiment with SN12C renal, in the experiment with RXF 393 renal, with OVCAR-3 ovarian, with SF-295 CNS, in the experiment on CCRF-CEM leukemia and with A498 renal was above 100 µM throughout.

Regarding `N#Cc1c(=O)c2ccccc2n2c1[nH]c1ccccc12`, the TGI in the experiment with SNB-19 CNS, in the experiment on SW-620 colon, in the experiment on K-562 leukemia, with A549 NSCLC, in the experiment with HCC-2998 colon and in the experiment with LOX IMVI melanoma was above 100 µM in each case. Moreover, the TGI in the experiment with RPMI-8226 leukemia, with UACC-62 melanoma, in the experiment with 786-0 renal, with SNB-75 CNS, with HCT-15 colon and in the experiment with SN12C renal was above 100 µM in each case. Besides, the TGI in the experiment on IGROV1 ovarian is above 100 µM; in the experiment on RXF 393 renal, above 100 µM; in the experiment with OVCAR-3 ovarian, above 100 µM; in the experiment on SF-295 CNS, above 100 µM; in the experiment on CCRF-CEM leukemia, 79.6 µM; in the experiment with A498 renal it was above 100 µM.

On to `Nc1nc2c(c(=O)[nH]1)C(c1ccccc1)CC(=O)N2` (centres undefined), for which the TGI with SNB-19 CNS, in the experiment with SW-620 colon, in the experiment with K-562 leukemia, with A549 NSCLC, in the experiment on HCC-2998 colon and with LOX IMVI melanoma was above 100 µM each time. The TGI in the experiment on RPMI-8226 leukemia, in the experiment with UACC-62 melanoma, with 786-0 renal, in the experiment with SNB-75 CNS, with HCT-15 colon and in the experiment with SN12C renal was above 100 µM each time. Also, the TGI in the experiment on IGROV1 ovarian, in the experiment on OVCAR-3 ovarian, with SF-295 CNS and in the experiment on A498 renal was above 100 µM in each case.

`Nc1ccc2c(=O)cc(-c3cccs3)[nH]c2n1`: the TGI is above 100 µM in the experiment with SNB-19 CNS; above 100 µM in the experiment with SW-620 colon; above 100 µM in the experiment on K-562 leukemia; above 100 µM in the experiment with HOP-92 NSCLC; above 37.5 µM with A549 NSCLC; 27.5 µM with HCC-2998 colon. The TGI is above 45.4 µM with LOX IMVI melanoma; above 100 µM in the experiment on UACC-62 melanoma; above 100 µM in the experiment with 786-0 renal; above 28.5 µM with SNB-75 CNS; above 60.4 µM with HCT-15 colon; above 59.7 µM in the experiment on SN12C renal. Also, the TGI with IGROV1 ovarian is above 100 µM; with RXF 393 renal it was above 100 µM; with OVCAR-3 ovarian, above 100 µM; in the experiment with SF-295 CNS, above 53.4 µM; with CCRF-CEM leukemia, above 44.9 µM; with A498 renal, above 100 µM.

The values above are taken from PubChem BioAssay (NCI).
